The values below come from US11234992B2, “Methods and therapies for treating atherosclerosis and/or hyperlipidemia using oligosaccharides” (The Regents of the University of California, priority 2018, dated 2022).

Each structure is given as a SMILES string. ≈ marks a conversion by molar mass, not a printed value. Entries after “also recorded” stand apart in the source; their conditions may differ.

For experiment [1], the system named is mice on a high fat diet (HFD). In words: In vivo atherosclerosis/hyperlipidemia mouse model on high fat diet. Conditions: for inflammation in the liver, adipose tissue and arterial vessel wall / systemic secretion of pro-inflammatory cytokines like IL-1β and IL-6: in vitro and in vivo studies. The protocol: FIG. 1 provides a diagram of a mouse model used to test 3′SL effects on atherosclerosis. In particular, the mice are fed a high fat diet for two weeks prior to treatment in order to promote atherosclerosis in the mice. Treatment begins at the end of the second week with 3′SL or vehicle, whereby 3′SL or vehicle are administered to the mice twice daily at a dose of 90 mg/gavage. After 6 weeks of treatment, the mice are sacrificed and atherosclerosis lesions and plaques are assessed.
The complex pathology of atherosclerosis is characterized by the accumulation of lipids, inflammatory cells, and fibrous elements in large- and medium-sized arteries. According to the “response-to-retention” model, focal infiltration and retention of apolipoprotein B (apoB)-containing lipoproteins, such as low-density lipoproteins (LDLs), lipoprotein (a), and triglyceride-rich remnant particles (TRLs), in the subendothelial matrix of the tunica intima of arteries at atherosclerosis-prone sites initiates atherogenesis. Subsequent oxidation, lipolysis, proteolysis, and further aggregation of trapped LDL particles contribute to a chronic inflammatory response characterized by monocyte and T cell migration into the intima. Monocytes entering the plaque differentiate into macrophages and the expression of scavenger receptors result in internalization of modified lipoprotein particles. Lesion macrophages proliferate, accumulate massive amounts of cholesterol, and become lipid droplet-loaded “foam cells,” resulting in their retention in the lesion. Atherosclerosis is further characterized by the accumulation of M1-like macrophages and secretion of characteristic cytokines and chemokines. Priming of macrophages is sufficient to promote increased macrophage infiltration and inflammation in aorta, exacerbating atherosclerosis. […] Therefore, we will use Ldlr^−/− mice with a hypercholesterolemic background to study atherosclerosis development, which has several advantages: (1) cholesterol in Ldlr^−/− mice is mainly restricted to LDL particles resembling the situation in humans; (2) because of the minor importance of Ldlr in bone marrow derived cells related to atherosclerosis, the Ldlr^−/− mice are a very suitable model to study the role of candidate genes in these cells; (3) initiation of atherosclerotic plaque development can be highly controlled, as atherosclerosis will develop only upon feeding a high-fat/high-cholesterol diet.
Atherogenesis is determined by “en face” preparation of the entire aorta and Sudan IV staining to determine lipid infiltration as a measure for lesion surface as described in Gordts et al. (Arterioscler Thromb Vasc Biol. 29:1258-64 (2009)). In addition, the heart is isolated for sectioning of the aortic root to determine aortic root lesion area and qualitative assessment of the plaque phenotype. Aortic root cross-sectional atherosclerosis is measured by cutting 10 μm paraffin sections starting at the aortic valve plane and covering 1,000 μm in 100-μm increments. Two approaches are used to assess if 3′SL administration affects plaque stability and inflammatory cell composition in atherosclerotic plaques. Sections are immunostained using various antibodies to identify smooth muscle cells and macrophages and apoB content as well as the presence of oxidation-specific antibodies reflective of OxLDL. The extracellular content is visualized via staining using Oil red O (lipids), Hematoxylin and Eosin (necrotic core), Movat Pentachrome (proteoglycans), Masson-Goldner (collagen) and Verhoeffs van Gieson (elastin) staining protocols. As a measurement of the clinically relevant plaque vulnerability/stability in advanced lesions, fibrous cap thickness is determined by comparing serial sections each stained for smooth muscle cells and collagens, and the extent of necrosis will be quantified using imaging techniques as described in Gordts P L et al. (Cell Metabolism 20:813-26 (2014)). […]

In another experiment the test system is IL-6. In words: Attenuation of IL-6 cytokine expression (IC50). It counts as cell-based. As for the experimental part:
(§1) In particular, pooled HMOs (˜100 μg/mL) attenuated LPS-induced M1 polarization and importantly its subsequent cytokine expression (IL-1β, IL-6, etc. mRNA and protein levels) in a mouse macrophage cell line (RAW246) and in primary bone marrow derived macrophages (BMDM). […] Moreover, the attenuation effects remain when cells are stimulated with LipidA instead of LPS, excluding carbohydrate-carbohydrate interactions between LPS and HMOs above the cell surface.

A further experiment concerns MAPK pathway. In words: Downstream signalling in BMDM, MAPK pathway. Conditions: in the absence and presence of LPS. It counts as cell-based, mouse. The protocol:
as §1
To elucidate the receptor, signaling pathway and downstream transcription regulated by 3′SL in BMDM, a three-prong approach is utilized: (a) Whole Transcriptome Shotgun Sequencing (WTSS) is used to identify differentially regulated genes. […] In both approaches, naive BMDM is compared with 3′SL-treated BMDM as well LPS-stimulated BMDM and LPS-treated BMDM co-treated with 3′SL; and (c) A 3′SL affinity matrix is generated to run macrophage plasma membrane and isolate 3′SL binding proteins. Proteins are eluted from the matrix using different salt gradients and analyzed by silvers staining. Relevant elution fraction and individual protein bands are isolated and prepared for mass-spectrometry analysis. The above three-way approach allows for the identification of the receptor, signaling pathway and downstream transcription that is regulated by 3′SL. […]

For experiment [2], the system named is primary bone marrow derived macrophages (BMDM). The experiment in a line: LPS-induced M1 polarization and cytokine expression in primary bone marrow derived macrophages. It counts as cell-based. The following applies: primary mouse cells; preliminary results. As for the experimental part:
as §1
(§2) Here, the aim is to test whether the results translate to in vivo efficacy in a short-term and a long-term disease model of chronic inflammation. Rheumatoid arthritis (RA) is an inflammatory disorder that affects approximately 1% of the adult population worldwide. It is characterized by systemic and local inflammation that leads to cartilage and bone destruction. Collagen antibody-induced arthritis (CAIA) is a simple RA mouse model that can be used to address questions of pathogenic mechanisms and to screen candidate therapeutic agents. Arthritis is induced by the systemic administration of a cocktail of monoclonal antibodies that target various regions of collagen type II, which is one of the major constituents of articular cartilage matrix proteins, together with LPS. […]

Experiment [3] has as its system mouse macrophage cell line (RAW246). In words: LPS-induced M1 polarization and cytokine expression in mouse macrophage cell line. The following applies: preliminary results. It counts as cell-based. As for the experimental part: as §1, §2
A further experiment has as its system IL-1β. The experiment in a line: Attenuation of IL-1β cytokine expression (IC50). It counts as cell-based. The following applies: cell type not given. As for the experimental part: as §1
The test system of experiment [4] is LPS-activated Thp-1 cells (human cell line). The experiment in a line: Cytokine expression in LPS-activated Thp-1 cells. It counts as cell-based.
The mark [5] stands for this setting: summary statement, lipid metabolism.

With `CC(=O)N[C@H]1[C@H]([C@H](O)[C@H](O)CO)O[C@@](OC[C@H]2O[C@@H](O[C@H]3[C@H](O)[C@@H](O)[C@H](O)O[C@@H]3CO)[C@H](O)[C@@H](O)[C@H]2O)(C(=O)O)C[C@@H]1O` [6′SL, 6′-sialyllactose], in experiment [1] (summary statement), the “inflammation in the liver, adipose tissue and arterial vessel wall” value was “attenuate”; the “systemic secretion of pro-inflammatory cytokines like IL-1β and IL-6” value is given as “suppresses”. Also, in the experiment with IL-6 (test not specified, stated directly after the 3′SL cytokine IC50 values), the therapeutic effect entry is “therapeutic effect”.
Broadly, the IC50 is the concentration that gives 50% inhibition. Higher therefore signals weaker potency. Consider `CC(=O)NC1C(O)CC(OC2C(O)C(CO)OC(OC(C(O)CO)C(O)C(O)C=O)C2O)(C(=O)O)OC1C(O)C(O)CO` (stereo not drawn) [3′SL, 3′-sialyllactose], for which the “down-stream activation of the MAPK pathway” value in the experiment with MAPK pathway is “regulate down-stream activation”. The “LPS-induced M1 polarization and subsequent cytokine expression (IL-1b, IL-6, etc. mRNA and protein levels)” value in experiment [2] was “attenuates”; in experiment [3], “attenuates”; in experiment [4] (human cell line, preliminary results) it was “attenuates”. The “plasma triglycerides (TG) levels” value in experiment [1] (mice on high fat diet, 3′SL twice daily 90 mg/gavage for 6 weeks vs vehicle, FIG. 2A) was “lower plasma triglyceride levels; also recorded: significant decrease”. In addition, the cholesterol levels entry in experiment [1] (mice on high fat diet, 3′SL twice daily 90 mg/gavage for 6 weeks vs vehicle, FIG. 2B) is recorded as “lower cholesterol levels; also recorded: significant decrease”. The “lesion area of atherosclerotic lesions (En Face)” value in experiment [1] (mice on high fat diet, 3′SL twice daily 90 mg/gavage for 6 weeks vs vehicle, FIG. 3A) is recorded as “smaller lesion areas; also recorded: significantly reduced in size”. Also, in experiment [1] (mice on high fat diet, 3′SL twice daily 90 mg/gavage for 6 weeks vs vehicle, FIG. 3B), the aortic plaque size entry is “smaller sized plaques; also recorded: significantly reduced”. Further, the “inflammation in the liver, adipose tissue and arterial vessel wall” value in experiment [1] (summary statement) is “attenuate”. The “systemic secretion of pro-inflammatory cytokines like IL-1β and IL-6” value in experiment [1] (summary statement) is on record as “suppresses”. Also, the lipase activity entry in experiment [1] (setting [5]) was “promoting”. Also, the postprandial lipid clearance entry in experiment [1] (setting [5]) is listed as “promoting”. Also, the half-maximal inhibitory concentration (IC50) is roughly 16.5 µg/mL (≈ 26 µM) with IL-6 (cell type not given) and roughly 44.4 µg/mL (≈ 70.1 µM) with IL-1β. Moreover, the cytokine expression entry in experiment [4] (LPS-activated Thp-1 cells) is given as “effectively reduced”.
